Test results as given in US20020137929A1, “1 - (3-heterocyclylphenyl) isothiourea, -isourea, -guanidine and -amidine herbicidal agents” (Intellectual Property Department, BASF Aktiengesellschaft, priority 1998, published 2002).

Experiments:
ECHCG (Barnyardgrass) = experiment: Preemergence herbicidal evaluation; format: in vivo, Echinochloa crus-galli; details: rated 4-5 weeks after treatment
Procedure, shortened: (§1)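 Scores use a 0–9 visual scale covering stand, vigor, malformation, size and chlorosis relative to controls, rated four to five weeks after treatment. Before emergence, soil-planted seeds were sprayed with compound in aqueous acetone at roughly 0.0156–0.500 kg/ha and held in the greenhouse.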

CYPIR (Rice Flatsedge) [1] = experiment: Postemergence weed control under flooded paddy conditions; format: in vivo, Cyperus iria; details: postemergence weeds, 3-4 weeks after treatment
Procedure, shortened: (§2)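 Flood-water application, about 0.0313–0.500 kg/ha a.i. in aqueous/acetone 50/50 v/v; water depth 1.5–3 cm throughout. Weeds 3–5 cm, rice 1.5–2.5 leaf. Greenhouse; 0–9 visual rating vs control at 3–4 wk.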

ZEAMX (Corn, Field) [2] = experiment: Preemergence herbicidal evaluation; format: in vivo, Zea mays; details: rated 4-5 weeks after treatment
Procedure, shortened: as §1

[3] = system: TRZAWR (Wheat, Winter, cv Riband); experiment: Preemergence herbicidal evaluation; format: in vivo, Triticum aestivum; details: rated 4-5 weeks after treatment
Procedure, shortened: as §1

CYPIR (Rice Flatsedge) [4] = experiment: Preemergence weed control under flooded paddy conditions; format: in vivo, Cyperus iria; details: rated 3-4 weeks after treatment
Procedure, shortened: (§3)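 Herbicidal effect is scored visually on a 0-9 scale against an untreated control, three to four weeks after compounds are pipetted into the flood water (1.5 to 3 cm deep) over seeds planted in silt loam at 0.5 cm depth. Rates: about 0.0313 to 0.500 kg/ha.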

CYPSE (Flatsedge) [5] = experiment: as above; format: in vivo, Cyperus serotinus; details: rated 3-4 weeks after treatment
Procedure, shortened: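 Visual injury scored 0-9 against control three to four weeks post-treatment, greenhouse-grown. Application: acetone/water (50/50) solutions dosed directly into flood water (1.5-3 cm over silt loam, planted top 0.5 cm), roughly 0.0313 to 0.500 kg/ha active ingredient.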

[6] = system: ECHORC (Watergrass (Calif.)); experiment: Postemergence weed control under flooded paddy conditions; format: in vivo, Echinochloa oryzoides; details: postemergence weeds, 3-4 weeks after treatment
Procedure, shortened: as §2

ORYSAT (Rice, Tebonnet) = experiment: Postemergence herbicidal evaluation; format: in vivo, Oryza sativa, (L.) Tebonnet
Procedure, shortened: (§4)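 Each compound, dispersed in an acetone/water mix (50/50) carrying 0.5% TWEEN 20, is nozzle-sprayed at 40 psi on approximately two-week-old seedlings at about 0.0156–0.500 kg/ha. Plants are assessed 4–5 weeks afterward on a 0–9 scale relative to control; duplicate tests are averaged.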

[7] = system: ECHORC (Watergrass (Calif.)); experiment: Preemergence weed control under flooded paddy conditions; format: in vivo, Echinochloa oryzoides; details: rated 3-4 weeks after treatment
Procedure, shortened: as §3

SETVI (Foxtail, Green) [8] = experiment: Postemergence herbicidal evaluation; format: in vivo, Setaria viridis
Procedure, shortened: as §4

ZEAMX (Corn, Field) [9] = experiment: Postemergence herbicidal evaluation; format: in vivo, Zea mays
Procedure, shortened: as §4

SETVI (Foxtail, Green) [10] = experiment: Preemergence herbicidal evaluation; format: in vivo, Setaria viridis; details: rated 4-5 weeks after treatment
Procedure, shortened: as §1

[11] = system: SAGPY (Arrowhead (Pygmaea)); experiment: Postemergence weed control under flooded paddy conditions; format: in vivo, Sagittaria pygmaea; details: postemergence weeds, 3-4 weeks after treatment
Procedure, shortened: as §2

CYPSE (Flatsedge) [12] = experiment: as above; format: in vivo, Cyperus serotinus; details: postemergence weeds, 3-4 weeks after treatment
Procedure, shortened: as §2

## CCOC(=O)COc1ccccc1CC1S/C(=N/c2cc(-n3c(=O)cc(C(F)(F)F)n(C)c3=O)c(F)cc2Cl)N(CC(=O)OCC)C1=O (centres unmarked) [Compound 42, 2-{{2-Chloro-5-[3,6-dihydro-3-methyl-2,6-dioxo-4-(trifluoromethyl)-1(2H)-pyrimidinyl]-4-fluoro-phenyl}imino}-5-(o-hydroxybenzyl)-4-oxo-3-thiazolidineacetic acid, ethyl ester, ester with ethyl glycolate]
ECHCG (Barnyardgrass); rate 0.0313 kg/ha
  Preemergence herbicidal rating ECHCG: 0.0
ECHCG (Barnyardgrass); rate 0.0625 kg/ha
  Preemergence herbicidal rating ECHCG: 0.0
ECHCG (Barnyardgrass); rate 0.1250 kg/ha
  Preemergence herbicidal rating ECHCG: 0.0
ECHCG (Barnyardgrass); rate 0.2500 kg/ha
  Preemergence herbicidal rating ECHCG: 0.0
CYPIR (Rice Flatsedge) [1]; rate 0.0313 kg/ha
  Herbicidal rating CYPIR: 0.0
CYPIR (Rice Flatsedge) [1]; rate 0.0625 kg/ha
  Herbicidal rating CYPIR: 0.0
CYPIR (Rice Flatsedge) [1]; rate 0.1250 kg/ha
  Herbicidal rating CYPIR: 0.0
CYPIR (Rice Flatsedge) [1]; rate 0.2500 kg/ha
  Herbicidal rating CYPIR: 0.0
ZEAMX (Corn, Field) [2]; rate 0.0313 kg/ha
  Preemergence herbicidal rating ZEAMX: 0.0
ZEAMX (Corn, Field) [2]; rate 0.0625 kg/ha
  Preemergence herbicidal rating ZEAMX: 1.0
ZEAMX (Corn, Field) [2]; rate 0.1250 kg/ha
  Preemergence herbicidal rating ZEAMX: 0.0
ZEAMX (Corn, Field) [2]; rate 0.2500 kg/ha
  Preemergence herbicidal rating ZEAMX: 1.0
[3]; rate 0.0313 kg/ha
  Preemergence herbicidal rating TRZAWR: 0.0
[3]; rate 0.0625 kg/ha
  Preemergence herbicidal rating TRZAWR: 0.0
[3]; rate 0.1250 kg/ha
  Preemergence herbicidal rating TRZAWR: 0.0
[3]; rate 0.2500 kg/ha
  Preemergence herbicidal rating TRZAWR: 0.0
CYPIR (Rice Flatsedge) [4]; 0.0313 kg/ha
  Herbicidal rating CYPIR: 0.0
CYPIR (Rice Flatsedge) [4]; 0.0625 kg/ha
  Herbicidal rating CYPIR: 0.0
CYPIR (Rice Flatsedge) [4]; 0.1250 kg/ha
  Herbicidal rating CYPIR: 0.0
CYPIR (Rice Flatsedge) [4]; 0.2500 kg/ha
  Herbicidal rating CYPIR: 0.0
CYPSE (Flatsedge) [5]; 0.0313 kg/ha
  Herbicidal rating CYPSE: 0.0
CYPSE (Flatsedge) [5]; 0.0625 kg/ha
  Herbicidal rating CYPSE: 0.0
CYPSE (Flatsedge) [5]; 0.1250 kg/ha
  Herbicidal rating CYPSE: 0.0
CYPSE (Flatsedge) [5]; 0.2500 kg/ha
  Herbicidal rating CYPSE: 0.0
[6]; rate 0.0313 kg/ha
  Herbicidal rating ECHORC: 5.0
[6]; rate 0.0625 kg/ha
  Herbicidal rating ECHORC: 5.0
[6]; rate 0.1250 kg/ha
  Herbicidal rating ECHORC: 5.0
[6]; rate 0.2500 kg/ha
  Herbicidal rating ECHORC: 6.0
ORYSAT (Rice, Tebonnet); Rate 0.0158 kg/ha
  Postemergence herbicidal rating ORYSAT: 2.5
ORYSAT (Rice, Tebonnet); Rate 0.0315 kg/ha
  Postemergence herbicidal rating ORYSAT: 2.5
ORYSAT (Rice, Tebonnet); Rate 0.0630 kg/ha
  Postemergence herbicidal rating ORYSAT: 3.0
[7]; 0.0313 kg/ha
  Herbicidal rating ECHORC: 5.0
[7]; 0.0625 kg/ha
  Herbicidal rating ECHORC: 5.0
[7]; 0.1250 kg/ha
  Herbicidal rating ECHORC: 5.0
[7]; 0.2500 kg/ha
  Herbicidal rating ECHORC: 6.0
SETVI (Foxtail, Green) [8]; Rate 0.0158 kg/ha
  Postemergence herbicidal rating SETVI: 0.0
SETVI (Foxtail, Green) [8]; Rate 0.0315 kg/ha
  Postemergence herbicidal rating SETVI: 1.0
SETVI (Foxtail, Green) [8]; Rate 0.0630 kg/ha
  Postemergence herbicidal rating SETVI: 1.0
ZEAMX (Corn, Field) [9]; Rate 0.0158 kg/ha
  Postemergence herbicidal rating ZEAMX: 4.5
ZEAMX (Corn, Field) [9]; Rate 0.0315 kg/ha
  Postemergence herbicidal rating ZEAMX: 4.5
ZEAMX (Corn, Field) [9]; Rate 0.0630 kg/ha
  Postemergence herbicidal rating ZEAMX: 4.5
SETVI (Foxtail, Green) [10]; rate 0.0313 kg/ha
  Preemergence herbicidal rating SETVI: 0.0
SETVI (Foxtail, Green) [10]; rate 0.0625 kg/ha
  Preemergence herbicidal rating SETVI: 1.0
SETVI (Foxtail, Green) [10]; rate 0.1250 kg/ha
  Preemergence herbicidal rating SETVI: 0.0
SETVI (Foxtail, Green) [10]; rate 0.2500 kg/ha
  Preemergence herbicidal rating SETVI: 0.0
[11]; rate 0.0313 kg/ha
  Herbicidal rating SAGPY: 0.0
[11]; rate 0.0625 kg/ha
  Herbicidal rating SAGPY: 0.0
[11]; rate 0.1250 kg/ha
  Herbicidal rating SAGPY: 0.0
[11]; rate 0.2500 kg/ha
  Herbicidal rating SAGPY: 3.0
CYPSE (Flatsedge) [12]; rate 0.0313 kg/ha
  Herbicidal rating CYPSE: 0.0
CYPSE (Flatsedge) [12]; rate 0.0625 kg/ha
  Herbicidal rating CYPSE: 0.0
CYPSE (Flatsedge) [12]; rate 0.1250 kg/ha
  Herbicidal rating CYPSE: 0.0
CYPSE (Flatsedge) [12]; rate 0.2500 kg/ha
  Herbicidal rating CYPSE: 0.0
